Data: patent publication US11731986B2 (Sanford Burnham Prebys Medical Discovery Institute, priority 2017, dated 2023)

Target: T1, human LMPTP-A (Homo sapiens, UniProt P24666)
T1 sequence (P24666 1-158): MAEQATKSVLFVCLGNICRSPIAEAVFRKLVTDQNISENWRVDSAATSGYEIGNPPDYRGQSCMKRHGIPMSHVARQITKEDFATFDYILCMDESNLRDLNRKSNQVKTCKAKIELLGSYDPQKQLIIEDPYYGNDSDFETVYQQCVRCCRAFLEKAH
Test: Enzyme Assay of Inhibition of LMPTP-A (phosphatase assay, OMFP or pNPP substrate)
Assay type: biochemical
Details: Bis-Tris pH 6.0, 37° C.
Procedure, shortened: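 Buffer 50 mM Bis-Tris pH 6.0, 1 mM DTT, 0.01% Triton X-100, 37 °C; OMFP read continuously (485/525 nm) or pNPP stopped with NaOH, 405 nm. IC50 from concentration vs % activity. Selectivity: 40 μM compound with 0.4 mM OMFP or 5 mM pNPP; reversibility: 50 nM enzyme, 10 μM compound, 5 min, 100× dilution.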

Compound | IC50
COC(=O)c1ccc(-c2cc(NCCCN3CCCCC3)c3cnccc3n2)c(C(N)=O)c1 [methyl 3-carbamoyl-4-(4-((3-(piperidin-1-yl)propyl)amino)-1,6-naphthyridin-2-yl)benzoate] | 1000 to 20000 nM
methyl-N-(1-methylpiperidin-4-yl)-5-(4-((3-(piperidin-1-yl)propyl)amino)-1,6-naphthyridin-2-yl)-1H-pyrrolo[3,2-b]pyridine-2-carboxamide | 1000 to 20000 nM

Second part, the compound after the results:

IC50 | Compound
1000 to 20000 nM | CN1CCC(CNC(=O)C#Cc2ccc(-c3cc(NCCCN4CCCCC4)c4cnccc4n3)cc2)CC1 [N-((1-methylpiperidin-4-yl)methyl)-3-(4-(4-((3-(piperidin-1-yl)propyl)amino)-1,6-naphthyridin-2-yl)phenyl)propiolamide]
≤ 1000 nM | O=C(c1cc2ccc(-c3cc(NCCCN4CCCCC4)c4cnccc4n3)cc2s1)N1CCNCC1 [Piperazin-1-yl(6-(4-(3-(piperidin-1-yl)propylamino)-1,6-naphthyridin-2-yl)benzo[b]thiophen-2-yl)methanone]
1000 to 20000 nM | O=C(c1nc2ccc(-c3cc(NCCCN4CCCCC4)c4cnccc4n3)cc2s1)N1CCNCC1 [Piperazin-1-yl(6-(4-(3-(piperidin-1-yl)propylamino)-1,6-naphthyridin-2-yl)benzo[d]thiazol-2-yl)methanone]
≤ 1000 nM | CCOC(=O)c1cc2cc(-c3cc(NCCCN4CCCCC4)c4cnccc4n3)ccc2n1C [ethyl 1-methyl-5-(4-((3-(piperidin-1-yl)propyl)amino)-1,6-naphthyridin-2-yl)-1H-indole-2-carboxylate]
